Test results as given in ChEMBL document CHEMBL3085644, “Structure elucidation and antimalarial activity of apicidin F: an apicidin-like compound produced by Fusarium fujikuroi” (J Nat Prod, 2013).
Where a SMILES comes first, the peptide text is derived from it. [ ]: non-standard residue; d: D form. Trp(1-OMe) = COn1cc(C[C@H](N)C(=O)O)c2ccccc21; Asu = N[C@@H](CCCCCC(=O)O)C(=O)O; dPip = O=C(O)[C@H]1CCCCN1

Tests used:
Plasmodium falciparum [1] = assay: Antiplasmodial activity against chloroquine-resistant Plasmodium falciparum Dd2 assessed as parasite growth inhibition after 48 hrs by light microscopic analysis; assay type: functional, organism-based; conditions: Dd2, 48 h
Plasmodium falciparum [2] = assay: Antiplasmodial activity against Plasmodium falciparum NF54 assessed as [3H]-hypoxanthine incorporation after 48 hrs by liquid scintillation counting analysis; assay type: functional, organism-based

IC50 (Plasmodium falciparum [2]) [µM] | SMILES | IC50 (Plasmodium falciparum [1]) [µM]
– | CCC(=O)CCCCC[C@@H]1NC(=O)[C@H]2CCCCN2C(=O)[C@H]([C@@H](C)CC)NC(=O)[C@H](Cc2cn(OC)c3ccccc23)NC1=O [APICIDIN] | 0.2
0.67 | COn1cc(C[C@@H]2NC(=O)[C@H](CCCCCC(=O)O)NC(=O)[C@H]3CCCCN3C(=O)[C@H](Cc3ccccc3)NC2=O)c2ccccc21 (cyclo([Asu][Trp(1-OMe)]F[dPip])) | –
